Results taken from ChEMBL document CHEMBL1148041, “New fatty acid esters of drimane sesquiterpenes from Lactarius uvidus” (J Nat Prod, 1994).

What was measured:
[1] = tested on: Artemia salina; test: Toxicity in Artemia salina; assay type: organism-based; conditions: in vivo
[2] = tested on: HL-60; test: Cytotoxicity against human HL60 cells assessed as inhibition of [3H]thymidine incorporation at 0.05 gamma/ml; assay type: functional
[3] = tested on: HL-60; test: Cytotoxicity against human HL60 cells assessed as inhibition of [3H]thymidine incorporation at 50 gamma/ml; assay type: functional

| SMILES | LC50 [1] [ppm] | inhibition (INH) [2] [%] | inhibition (INH) [3] [%] |
| --- | --- | --- | --- |
| CC1(C)CCC[C@]2(C)[C@@H](CO)[C@@]3(C)O[C@H]3C(=O)[C@@H]12 [UVIDIN A] | 48.8 | 21 | 97 |
| CC1(C)[C@@H](O)CC[C@]2(C)[C@@H](CO)[C@@]3(C)O[C@H]3C(=O)[C@@H]12 [UVIDIN B] |  | 0 | 61 |
